Measured values reported in patent US20240156756A1 (Steel Therapeutics, Inc., priority 2021, published 2024).
Counter-ions that a name gives are not always drawn. Like-named read-outs stand apart in the source and are kept apart here.

Legend:
[1] = for stability of control sample (active only, no excipient): HPLC impurities
[2] = test system: chronic anal fissures; settings: cream containing 0.5% nifedipine for four weeks; cited from earlier work

| SMILES | stability of control sample (active only, no excipient) ([1]; T0, both temperatures (RT & 40° C.)) | degradation in any excipient combinations ([1]; T0, both temperatures (RT & 40° C.), major = >5%) | degradation in DEC combinations ([1]; T4 weeks, Benzyl Alcohol and Oleyl alcohol combinations) | major degradation in DEC combinations ([1]; T4 weeks, RT & 40° C., combinations of Transcutol, DMI, and PEG 400) [%] | stability of control sample (active only, no excipient) ([1]; T4 weeks, both temperatures (RT & 40° C.)) | patients experienced healing [2] [%] |
| --- | --- | --- | --- | --- | --- | --- |
| CCN(CC)CC(=O)Nc1c(C)cccc1C [Lidocaine HCl, 2-(diethylamino)-N-(2,6-dimethylphenyl)acetamide;hydrochloride] | stable | No major degradation | Slight degradation | > 5 | stable | – |
| COC(=O)C1=C(C)NC(C)=C(C(=O)OC)C1c1ccccc1[N+](=O)[O-] [Nifedipine, dimethyl 2,6-dimethyl-4-(2-nitrophenyl)-1,4-dihydropyridine-3,5-dicarboxylate] | – | – | – | – | – | 70 |
